This experiment deals with T1, Protein mono-ADP-ribosyltransferase TIPARP (Homo sapiens, UniProt Q7Z3E1).
T1 sequence (Q7Z3E1 whole entry): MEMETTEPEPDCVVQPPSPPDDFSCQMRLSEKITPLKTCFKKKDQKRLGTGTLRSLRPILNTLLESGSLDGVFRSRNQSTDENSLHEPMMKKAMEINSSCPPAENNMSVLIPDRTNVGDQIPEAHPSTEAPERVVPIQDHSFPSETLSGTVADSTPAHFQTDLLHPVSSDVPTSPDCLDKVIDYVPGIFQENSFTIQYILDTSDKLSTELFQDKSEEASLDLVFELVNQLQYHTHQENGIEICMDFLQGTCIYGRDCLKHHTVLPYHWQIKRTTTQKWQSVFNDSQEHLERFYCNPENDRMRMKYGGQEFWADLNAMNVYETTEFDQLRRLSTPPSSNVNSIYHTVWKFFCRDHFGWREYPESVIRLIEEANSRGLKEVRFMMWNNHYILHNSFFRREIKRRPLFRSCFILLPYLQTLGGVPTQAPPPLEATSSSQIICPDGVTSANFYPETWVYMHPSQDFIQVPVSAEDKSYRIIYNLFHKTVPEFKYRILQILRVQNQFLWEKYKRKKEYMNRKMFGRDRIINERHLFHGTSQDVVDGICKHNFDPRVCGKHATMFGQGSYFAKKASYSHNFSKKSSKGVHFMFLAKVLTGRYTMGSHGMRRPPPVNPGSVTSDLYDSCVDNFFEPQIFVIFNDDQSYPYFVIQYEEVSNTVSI
Put plainly: Enzymatic Biochemical Assay of PARP. As to the method:
The specific scheme was as follows: the 1× histone mixture was added to a 96-well plate at 50 μL per well, and the plate was incubated overnight at 4° C. The next day, after the plate was washed with PBST, 200 μL of blocking buffer per well was added, and the plate was incubated for 90 min. After the plate was washed with PBST again, 5 μL of inhibitor, 20 μL of 1×PARP buffer and 25 μL of […] were added to each well, and the plate was incubated at room temperature for 30 min. After the plate was washed with PBST, 100 μL of Elisa ECL substrate A and B mixture was added to each well, chemiluminescence value was immediately read using a plate reader, and IC50 values were calculated.

Each structure is given as a SMILES string.

The molecule `C[C@@H](COCc1nn2c(c1Cl)CN(c1cnc(C(F)(F)F)cn1)CC2)Nc1cn[nH]c(=O)c1C(F)(F)F` [US20240158406, Compound 14] returned an IC50 of less than 10 nM.

These data come from BindingDB's records for patent US20240158406 (Chengdu Baiyu Pharmaceutical Co., 2024).
